{"source": "patent US20200377599A1", "about": "“COMPOSITIONS AND METHODS FOR TREATING CANCER” (BETH ISRAEL DEACONESS MEDICAL CENTER, INC., priority 2017, published 2020)", "molecules": {"B1": {"name": "SPOP delta MATH (other, UniProt O43791 1-374, looked up)", "chain": "MSRVPSPPPPAEMSSGPVAESWCYTQIKVVSVVQDSVNISGQNTMNMVKVPECRLADELGGLWENSRFTDCCLCVAGQEFQAHKAILAARSPVFSAMFEHEMEESKKNRVEINDVEPEVFKEMMCFIYTGKAPNLDKMADDLLAAADKYALERLKVMCEDALCSNLSVENAAEILILADLHSADQLKTQAVDFINYHASDVLETSGWKSMVVSHPHLVAEAYRSLASAQCPFLGPPRKRLKQS", "notes": "also called SPOP with the MATH domain deleted; Flag-tagged SPOP delta MATH"}, "B2": {"name": "Flag-SPOP with delta D-Box (RxxL) (other, UniProt O43791 1-374, looked up)", "chain": "MSRVPSPPPPAEMSSGPVAESWCYTQIKVVKFSYMWTINNFSFCREEMGEVIKSSTFSSGANDKLKWCLRVNPKGLDEESKDYLSLYLLLVSCPKSEVRAKFKFSILNAKGEETKAMESQRAYRFVQGKDWGFKKFIRLDEANGLLPDDKLTLFCEVSVVQDSVNISGQNTMNMVKVPECRLADELGGLWENSRFTDCCLCVAGQEFQAHKAILAARSPVFSAMFEHEMEESKKNRVEINDVEPEVFKEMMCFIYTGKAPNLDKMADDLLAAADKYALERLKVMCEDALCSNLSVENAAEILILADLHSADQLKTQAVDFINYHASDVLETSGWKSMVVSHPHLVAEAYRSLASAQCPFLGPPRKRLKQS", "notes": "also called SPOP deletion of RxxL mutant; SPOP D-box deletion"}, "B3": {"name": "14-3-3γ (other, UniProt P61981 1-247, looked up)", "chain": "MVDREQLVQKARLAEQAERYDDMAAAMKNVTELNEPLSNEERNLLSVAYKNVVGARRSSWRVISSIEQKTSADGNEKKIEMVRAYREKIEKELEAVCQDVLSLLDNYLIKNCSETQYESKVFYLKMKGDYYRYLAEVATGEKRATVVESSEKAYSEAHEISKEHMQPTHPIRLGLALNYSVFYYEIQNAPEQACHLAKTAFDDAIAELDTLNEDSYKDSTLIMQLLRDNLTLWTSDQQDDDGGEGNN", "notes": "One of the HA-14-3-3 isoform constructs; also called HA-14-3-3γ"}}, "key": {"[1]": {"test_system": "PD-L1 protein abundance in MC38, CT26, 4T1 and B16-F10 cells", "assay": "Immunoblot of PD-L1 in mouse tumor cell lines arrested in M phase", "format": "cell-based", "settings": "MC38, CT26, 4T1 and B16-F10 cells arrested in M phase; treated 20 hours", "text": "FIG. 1A, FIG. 1B, FIG. 1C, FIG. 1D, FIG. 1E, FIG. 1F, FIG. 1G, and FIG. 1H are images showing the protein abundance of PD-L1 as the protein fluctuates during cell cycle progression. […] FIG. 1B are the cell-cycle profiles in FIG. 1A, which were monitored by fluorescence-activated cell sorting (FACS) analysis of DNA content. […] FIG. 1E and FIG. 1F show IB analysis of WCL derived from MC38 tumor cells, which are derived from colon adenocarcinoma, or CT26 mouse tumor cells, which are colon carcinoma cells, treated with the indicated concentration of nocodazole for 20 hours before harvesting. FIG. 1G and FIG. 1H show IB analysis of WCL derived from 4T1 tumor cells, which are breast cancer cells, or CT26 mouse tumor cells treated with indicated concentration of taxol for 20 hours before harvesting. […]\n(§1) Cells were lysed in EBC buffer (50 mM Tris pH 7.5, 120 mM NaCl, 0.5% NP-40) supplemented with protease inhibitors (Complete Mini, Roche) and phosphatase inhibitors (phosphatase inhibitor cocktail set I and II, Calbiochem). Protein concentrations were measured by the Beckman Coulter DU-800 spectrophotometer using the Bio-Rad protein assay reagent as described previously (Gao et al. Nat Cell Biol 11, 397-408 (2009)). […]"}, "[2]": {"test_system": "PD-L1 protein in C42 cells", "assay": "Immunoblot of PD-L1 in C42 cells treated with proteasome or cullin E3 ligase inhibitor", "format": "cell-based", "settings": "MG132 10 μM or MLN4924 1 μM, 12 hours", "procedure": "FIG. 3K is a graph showing the excised tumor mass (mg) of B16-F10 tumors ectopically expressing SPOP Wild Type (WT) or SPOP-F102C mutant. The B16-F10 tumors were harvested after euthanizing the mice and tumor weight was recorded at the time of sacrifice. Data are represented as mean±S.D., N=5, and *p<0.05 (Student's t-test). FIG. 3L and FIG. 3M are graphs showing the relative cell surface PD-L1 expression and absolute CD3^+ T-cell populations from the isolated tumor-infiltrating lymphocytes in B16-F10 xenografted tumors ectopically expressing SPOP-WT or the SPOP-F102C mutant as determined by FACS analysis. Data are represented as mean±S.D., N=5, and *p<0.05 (Student's t-test). […] FIG. 3O and FIG. 3P are graphs showing the quantification of IHC analysis of PD-L1 protein levels and CD8^+ T cells in 82 cases of SPOP wild-type versus 15 cases of SPOP-mutant human prostate tumor specimens. **p<0.01 (Mann-Whitney test for PD-L1); *p<0.05 (Student's t-test for CD8).\nas §1"}, "PD-L1": {"target": "T1, PD-L1 (human, UniProt Q9NZQ7 19-290, limits assumed)", "T1 construct": "also called HA-PD-L1; PD-L1 WT", "T1 sequence (Q9NZQ7 19-290 limits assumed)": "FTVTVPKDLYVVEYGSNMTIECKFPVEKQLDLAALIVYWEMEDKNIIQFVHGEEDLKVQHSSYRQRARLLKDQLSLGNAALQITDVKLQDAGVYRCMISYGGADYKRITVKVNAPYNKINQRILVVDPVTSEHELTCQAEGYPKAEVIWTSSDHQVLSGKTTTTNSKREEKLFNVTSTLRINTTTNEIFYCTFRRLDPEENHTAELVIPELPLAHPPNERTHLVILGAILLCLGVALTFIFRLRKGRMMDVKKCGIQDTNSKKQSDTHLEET", "assay": "co-immunoprecipitation from transfected 293T cells (FIG. 9E)"}, "Cdh1": {"target": "T2, Cdh1 (UniProt Q9UM11 1-496, limits assumed)", "T2 construct": "Expressed in 293T cells or endogenous in MDA-MB-231 and HeLa cells; also called HA-Cdh1; APC/C E3 ligase adaptor protein Cdh1", "T2 sequence (Q9UM11 whole entry)": "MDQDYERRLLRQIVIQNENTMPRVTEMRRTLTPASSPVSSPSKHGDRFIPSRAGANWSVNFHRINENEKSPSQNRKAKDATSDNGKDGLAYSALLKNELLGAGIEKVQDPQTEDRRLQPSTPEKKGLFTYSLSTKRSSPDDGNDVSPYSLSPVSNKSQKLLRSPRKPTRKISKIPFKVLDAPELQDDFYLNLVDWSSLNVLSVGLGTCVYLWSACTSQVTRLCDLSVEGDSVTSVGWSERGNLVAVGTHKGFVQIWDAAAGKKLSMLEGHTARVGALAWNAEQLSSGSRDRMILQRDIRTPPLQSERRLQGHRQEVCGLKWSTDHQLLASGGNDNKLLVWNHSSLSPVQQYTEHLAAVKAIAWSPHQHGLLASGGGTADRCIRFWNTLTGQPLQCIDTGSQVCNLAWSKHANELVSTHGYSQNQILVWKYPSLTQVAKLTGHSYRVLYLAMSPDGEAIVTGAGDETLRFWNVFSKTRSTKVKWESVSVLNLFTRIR", "assay": "co-immunoprecipitation from transfected 293T cells (FIG. 4C)", "procedure": "Cells were treated with 30 μM MG132 for 6 hours before harvesting. […] FIG. 4F are in vitro kinase assays showing that cyclin D1/CDK4 phosphorylates SPOP at Ser6, not Ser222. FIG. 4G and FIG. 4H show IB analysis of IP and WCL derived from 293T cells transfected with indicated constructs and treated with MG132 (10 μM) for 12 hours before harvesting. […] Tumor volume were measured every three days and plotted individually. […]"}, "SPOP-S6A mutant": {"target": "T3, SPOP-S6A mutant (UniProt O43791 1-374)", "T3 construct": "also called Flag-SPOP S6A; phosphorylation-deficient S6A mutant of SPOP", "assay": "co-immunoprecipitation from transfected 293T cells (FIG. 4H)"}}, "note": "Where a SMILES comes first, the peptide text is derived from it. The star is where a group is joined. Cbz = O=C(OCc1ccccc1)*"}
{"molecule": "CC(=O)O[C@H]1C(=O)[C@@]2(C)[C@H]([C@H](OC(=O)c3ccccc3)[C@]3(O)C[C@H](OC(=O)[C@H](O)[C@@H](NC(=O)c4ccccc4)c4ccccc4)C(C)=C1C3(C)C)[C@]1(OC(C)=O)CO[C@@H]1C[C@@H]2O", "note": "[Taxol]", "values": [{"measurement": "PD-L1 protein abundance", "setting": "[1]", "value": "Elevated PD-L1 protein abundance"}]}
{"molecule": "CC(C)C[C@@H](C=O)NC(=O)[C@H](CC(C)C)NC(=O)[C@H](CC(C)C)NC(=O)OCc1ccccc1", "note": "[MG132] (Cbz-Leu-Leu-Leu-aldehyde)", "values": [{"measurement": "PD-L1 protein stability", "setting": "[2]", "value": "stabilized PD-L1 protein"}]}
{"molecule": "NS(=O)(=O)OC[C@@H]1C[C@@H](n2ccc3c(N[C@H]4CCc5ccccc54)ncnc32)C[C@@H]1O", "note": "[MLN4924]", "values": [{"measurement": "PD-L1 protein stability", "setting": "[2]", "value": "stabilized PD-L1 protein"}]}
{"molecule": "COC(=O)Nc1nc2ccc(C(=O)c3cccs3)cc2[nH]1", "note": "[nocodazole]", "values": [{"measurement": "PD-L1 protein abundance", "setting": "[1]", "value": "Elevated PD-L1 protein abundance"}]}
{"molecule": "B1", "values": [{"measurement": "binding result", "setting": "PD-L1", "value": "no binding"}]}
{"molecule": "B2", "values": [{"measurement": "binding result", "setting": "Cdh1", "value": "no binding"}]}
{"molecule": "B3", "values": [{"measurement": "binding result", "setting": "SPOP-S6A mutant", "value": "no binding"}]}
